Reference: the NIST ThermoML archive (doi:10.1016/j.jct.2006.09.012)
“And” between values parts separate entries of the source, which are not always exact repeats. Equal values may be shown once.

Settings: Gas, Buoyancy - hydrostatic balance with magnetic suspension - two sinkers

[He] [helium]
Settings	mass density
223.15 K, 1881.4 kPa	4.0102 kg/m3 and 4.0101 kg/m3
223.15 K, 1881.5 kPa	4.0102 kg/m3
223.15 K, 3970 kPa	8.3499 kg/m3
223.15 K, 3970.1 kPa	8.3501 kg/m3 and 8.3499 kg/m3 and 8.35 kg/m3
223.15 K, 3970.2 kPa	8.3499 kg/m3
223.15 K, 8133.1 kPa	16.67 kg/m3 and 16.6699 kg/m3 and 16.6701 kg/m3
223.15 K, 8133.2 kPa	16.6699 kg/m3 and 16.6701 kg/m3
223.15 K, 11880 kPa	23.8087 kg/m3 [middle of 5 runs]
223.15 K, 15827 kPa	30.9985 kg/m3
223.15 K, 15828 kPa	30.9993 kg/m3 [middle of 4 runs]
223.15 K, 19642 kPa	37.6507 kg/m3 [middle of 4 runs]
223.15 K, 26024 kPa	48.1863 kg/m3 and 48.1868 kg/m3
223.15 K, 26025 kPa	48.1881 kg/m3 and 48.1886 kg/m3 and 48.1887 kg/m3
223.15 K, 32014 kPa	57.4666 kg/m3
223.15 K, 32015 kPa	57.4668 kg/m3 and 57.4679 kg/m3
223.15 K, 32016 kPa	57.4684 kg/m3
223.15 K, 32017 kPa	57.4698 kg/m3
223.15 K, 38281 kPa	66.6119 kg/m3
223.15 K, 38282 kPa	66.6131 kg/m3 and 66.6126 kg/m3
223.15 K, 38283 kPa	66.614 kg/m3
223.15 K, 38284 kPa	66.616 kg/m3
253.15 K, 1929.2 kPa	3.629 kg/m3 and 3.6292 kg/m3
253.15 K, 1929.3 kPa	3.629 kg/m3 and 3.6294 kg/m3 and 3.6292 kg/m3
253.15 K, 3784.6 kPa	7.046 kg/m3 and 7.0462 kg/m3 and 7.0461 kg/m3
253.15 K, 7472.2 kPa	13.634 kg/m3
253.15 K, 7472.3 kPa	13.634 kg/m3
253.15 K, 11895 kPa	21.202 kg/m3 and 21.2018 kg/m3
253.15 K, 11896 kPa	21.2023 kg/m3 and 21.2022 kg/m3 and 21.2019 kg/m3
253.15 K, 15957 kPa	27.8548 kg/m3
253.15 K, 15958 kPa	27.8555 kg/m3 [middle of 4 runs]
253.15 K, 19865 kPa	34.0064 kg/m3 and 34.007 kg/m3
253.15 K, 19866 kPa	34.0081 kg/m3 and 34.0112 kg/m3
253.15 K, 25976 kPa	43.1785 kg/m3
253.15 K, 25977 kPa	43.179 kg/m3 and 43.1796 kg/m3
253.15 K, 25978 kPa	43.181 kg/m3 and 43.1801 kg/m3
253.15 K, 31938 kPa	51.6436 kg/m3 and 51.6443 kg/m3
253.15 K, 31940 kPa	51.647 kg/m3 and 51.6462 kg/m3 and 51.6454 kg/m3
253.15 K, 37813 kPa	59.5651 kg/m3
253.15 K, 37814 kPa	59.5664 kg/m3
253.15 K, 37815 kPa	59.5673 kg/m3
253.15 K, 37816 kPa	59.5686 kg/m3
253.15 K, 37817 kPa	59.5703 kg/m3
273.16 K, 935.8 kPa	1.6415 kg/m3
273.16 K, 935.9 kPa	1.6416 kg/m3 and 1.6415 kg/m3
273.16 K, 1881.8 kPa	3.2839 kg/m3
273.16 K, 1927.3 kPa	3.363 kg/m3 and 3.3629 kg/m3
273.16 K, 1927.4 kPa	3.3629 kg/m3 and 3.363 kg/m3
273.16 K, 1956.4 kPa	3.4135 kg/m3
273.16 K, 1956.5 kPa	3.4135 kg/m3 and 3.4134 kg/m3
273.16 K, 3626.6 kPa	6.273 kg/m3 and 6.2731 kg/m3
273.16 K, 3626.7 kPa	6.2732 kg/m3
273.16 K, 3626.8 kPa	6.2735 kg/m3
273.16 K, 3926.1 kPa	6.7802 kg/m3
273.16 K, 3926.2 kPa	6.7804 kg/m3 and 6.7802 kg/m3 and 6.7803 kg/m3
273.16 K, 3952.8 kPa	6.8257 kg/m3
273.16 K, 3952.9 kPa	6.8257 kg/m3
273.16 K, 3975.1 kPa	6.8634 kg/m3
273.16 K, 3975.2 kPa	6.8633 kg/m3 and 6.8635 kg/m3
273.16 K, 7764.9 kPa	13.1534 kg/m3
273.16 K, 7765.3 kPa	13.1538 kg/m3
273.16 K, 7765.7 kPa	13.1545 kg/m3
273.16 K, 7766.1 kPa	13.1555 kg/m3
273.16 K, 7766.6 kPa	13.1563 kg/m3
273.16 K, 7916 kPa	13.399 kg/m3
273.16 K, 7916.1 kPa	13.3992 kg/m3 and 13.399 kg/m3 and 13.3991 kg/m3
273.16 K, 7973.3 kPa	13.4919 kg/m3
273.16 K, 7973.4 kPa	13.4923 kg/m3 and 13.4922 kg/m3 and 13.4921 kg/m3
273.16 K, 8006.1 kPa	13.5452 kg/m3
273.16 K, 8006.2 kPa	13.5452 kg/m3
273.16 K, 11783 kPa	19.5712 kg/m3 [middle of 5 runs]
273.16 K, 11830 kPa	19.6435 kg/m3 [middle of 5 runs]
273.16 K, 11855 kPa	19.6832 kg/m3 [middle of 5 runs]
273.16 K, 12056 kPa	19.9988 kg/m3 [middle of 5 runs]
273.16 K, 15586 kPa	25.4233 kg/m3 and 25.4234 kg/m3
273.16 K, 15587 kPa	25.4235 kg/m3 and 25.4232 kg/m3
273.16 K, 15980 kPa	26.017 kg/m3 [middle of 5 runs]
273.16 K, 16077 kPa	26.1628 kg/m3 and 26.1631 kg/m3
273.16 K, 16078 kPa	26.164 kg/m3 and 26.1636 kg/m3 and 26.1633 kg/m3
273.16 K, 16090 kPa	26.1822 kg/m3 [middle of 5 runs]
273.16 K, 19645 kPa	31.445 kg/m3 [middle of 4 runs]
273.16 K, 19708 kPa	31.5381 kg/m3 and 31.5379 kg/m3
273.16 K, 19709 kPa	31.5382 kg/m3 and 31.5385 kg/m3 and 31.5386 kg/m3
273.16 K, 19869 kPa	31.7712 kg/m3 and 31.7709 kg/m3
273.16 K, 19870 kPa	31.7727 kg/m3 and 31.7718 kg/m3 and 31.7722 kg/m3
273.16 K, 20242 kPa	32.3124 kg/m3 [middle of 4 runs]
273.16 K, 20243 kPa	32.314 kg/m3
273.16 K, 25434 kPa	39.6666 kg/m3 and 39.6662 kg/m3 and 39.6672 kg/m3
273.16 K, 25435 kPa	39.6682 kg/m3 and 39.6678 kg/m3
273.16 K, 25464 kPa	39.7083 kg/m3
273.16 K, 25465 kPa	39.7092 kg/m3
273.16 K, 25466 kPa	39.7107 kg/m3 and 39.7113 kg/m3 and 39.7099 kg/m3
273.16 K, 25915 kPa	40.3302 kg/m3 and 40.3307 kg/m3 and 40.3313 kg/m3
273.16 K, 25916 kPa	40.3324 kg/m3 and 40.3317 kg/m3
273.16 K, 25964 kPa	40.3998 kg/m3
273.16 K, 25965 kPa	40.4011 kg/m3 and 40.4013 kg/m3
273.16 K, 25966 kPa	40.402 kg/m3
273.16 K, 31576 kPa	47.9567 kg/m3
